Values quoted from earlier work as cited in US20240050950A1, “GRADIENT-BASED MICROFLUIDIC CIRCUIT, DEVICE, AND METHOD FOR PERFORMING AN ASSAY” (priority 2020, published 2024).
Counter-ions that a name gives are not always drawn.

Conditions: Table 1, antimicrobial agents/drugs; cited from earlier work

SMILES | Molar volume
CC(/C=C/C[C@@H](C)/C=C(C)/C=C/[C@@H]1OC(=O)C=C[C@@H]1C)=C\[C@@H](C)C(=O)[C@@H](C)[C@H](O)[C@@H](C)C/C(C)=C/C(=O)O [Leptomycin A] | 487.8 ± 3.0 cm^3
CCC(=C/[C@H](C)C/C=C/C(C)=C/[C@@H](C)C(=O)[C@@H](C)[C@H](O)[C@@H](C)C/C(C)=C/C(=O)O)/C=C/[C@@H]1OC(=O)C=C[C@@H]1C [Leptomycin B] | 504.3 ± 3.0 cm^3
c1ccc([C@H]2CN3CCSC3=N2)cc1 [Levamisol (Levamisole), Levamisole] | 154.1 ± 7.0 cm^3
COC(=O)Nc1nc2ccc(C(=O)c3ccccc3)cc2[nH]1 [Mebendazole] | 212.6 ± 3.0 cm^3
Cc1ncc([N+](=O)[O-])n1CCO [Metronidazole] | 117.8 ± 7.0 cm^3
CC[C@H](C)C(=O)O[C@H]1CCC=C2C=C[C@H](C)[C@H](CC[C@@H]3C[C@@H](O)CC(=O)O3)[C@H]21 [Mevastatin] | 343.8 ± 5.0 cm^3
CO[C@@]12[C@H](COC(N)=O)C3=C(C(=O)C(C)=C(N)C3=O)N1C[C@@H]1N[C@@H]12 [Mitomycin C (Mitomycin), Mitomycin C] | 213.6 ± 5.0 cm^3
CC[C@@]1([C@@H]2O[C@@H]([C@H]3O[C@@](O)(CO)[C@H](C)C[C@@H]3C)C[C@@H]2C)CC[C@H]([C@]2(C)CC[C@]3(C[C@H](O)[C@@H](C)[C@@H]([C@@H](C)[C@@H](OC)[C@H](C)C(=O)O)O3)O2)O1 [Monensin] | 552.7 ± 5.0 cm^3
CO[C@@]1(NC(=O)C(C(=O)O)c2ccc(O)cc2)C(=O)N2C(C(=O)O)=C(CSc3nnnn3C)CO[C@@H]21 (some centres unmarked) [Moxalactam (Latamoxef), Moxalactam] | 292.5 ± 7.0 cm^3
C/C(=C\C(=O)OCCCCCCCCC(=O)O)C[C@@H]1OC[C@H](C[C@@H]2O[C@H]2[C@@H](C)[C@H](C)O)[C@@H](O)[C@H]1O [Mupirocin] | 423.0 ± 3.0 cm^3
CO/C(=C/C(N)=O)[C@H](C)[C@H](/C=C/c1csc(-c2csc([C@@H](C)/C=C/C=C/C(C)C)n2)n1)OC [Myxothiazol] | 421.0 ± 3.0 cm^3
CN1C[C@H](O)[C@@H](O)[C@H](O)[C@H]1CO [N-Methyl-1-deoxynojirimycin (1524564), N-Methyl-1-deoxynojirimycin] | 127.0 ± 3.0 cm^3
CCOc1ccc2ccccc2c1C(=O)N[C@@H]1C(=O)N2[C@@H]1SC(C)(C)[C@@H]2C(=O)O [Nafcillin] | 289.8 ± 5.0 cm^3
CN(C/C=C/c1ccccc1)Cc1cccc2ccccc12 [Naftifine] | 265.4 ± 3.0 cm^3
CC[C@@H](C(=O)O)[C@@H]1O[C@@H]([C@@H](C)[C@H](O)[C@H](C)C(=O)[C@H](CC)[C@H]2O[C@]3(C=C[C@@H](O)[C@]4(CC[C@@](C)([C@H]5CC[C@](O)(CC)[C@H](C)O5)O4)O3)[C@H](C)C[C@@H]2C)[C@@H](C)C[C@@H]1C [Narasin] | 650.1 ± 5.0 cm^3
Cn1cc(NC(=O)c2cc(NC(=O)CN=C(N)N)cn2C)cc1C(=O)NCCC(=N)N [Netropsin (Congocidin, Sinanomycin), Netropsin] | 282.7 ± 7.0 cm^3
O=C(Nc1ccc([N+](=O)[O-])cc1Cl)c1cc(Cl)ccc1O [Niclosamide] | 202.4 ± 3.0 cm^3
CO[C@@H]1C[C@@H](C[C@H]2CC[C@H](C)[C@H]([C@@H](C)C(=O)O)O2)O[C@]2(O[C@](C)([C@H]3CC[C@@](C)([C@@H]4O[C@@H]([C@H]5O[C@@](O)(CO)[C@H](C)C[C@@H]5C)C[C@@H]4C)O3)C[C@H]2C)[C@@H]1C [Nigericin] | 607.9 ± 5.0 cm^3
C[C@@H]([C@H](N)C(=O)N[C@H](C(=O)O)[C@H]1O[C@@H](n2ccc(=O)[nH]c2=O)[C@H](O)[C@@H]1O)[C@H](O)c1ccc(O)cn1 [Nikkomycin] | 300.9 ± 3.0 cm^3

SMILES | Molar volume
C[C@@H]1C[C@H]2CC[C@H](O2)[C@H](C)C(=O)O[C@@H](C)C[C@@H]2CC[C@@H](O2)[C@@H](C)C(=O)O[C@H](C)C[C@H]2CC[C@H](O2)[C@H](C)C(=O)O[C@@H](C)C[C@@H]2CC[C@@H](O2)[C@@H](C)C(=O)O1 [Nonactin (Ammonium ionophore), Nonactin] | 707.9 ± 3.0 cm^3
CO[C@@H]1[C@@H](OC(N)=O)[C@@H](O)[C@H](Oc2ccc3c(O)c(NC(=O)c4ccc(O)c(CC=C(C)C)c4)c(=O)oc3c2C)OC1(C)C [Novobiocin] | 430.9 ± 5.0 cm^3
C[C@@H]1[C@H](O)[C@@H](C)/C=C/C=C/CC/C=C/C=C/C=C/C=C/C(O[C@H]2O[C@H](C)[C@@H](O)[C@H](N)[C@@H]2O)CC2O[C@](O)(CC(O)C(O)CCC(O)CC(O)CC(O)CC(=O)O[C@H]1C)CC(O)C2C(=O)O (some centres unmarked) [Nystatin (Fungicidin, Mycostatin), Nystatin] | 696.1 ± 5.0 cm^3
C[C@@H]1Cc2c(Cl)cc(C(=O)N[C@@H](Cc3ccccc3)C(=O)O)c(O)c2C(=O)O1 [Ochratoxin A] | 283.2 ± 3.0 cm^3
CC[C@@H]1/C=C/C=C/C[C@H](C)[C@H](O)[C@](C)(O)C(=O)[C@H](C)[C@@H](O)[C@H](C)C(=O)[C@H](C)[C@@H](O)[C@H](C)/C=C/C(=O)O[C@H]2[C@@H](C)[C@@H](CC1)O[C@@]1(CC[C@@H](C)[C@@H](C[C@H](C)O)O1)[C@@H]2C [Oligomycin A] | 688.2 ± 5.0 cm^3
Cc1onc(-c2ccccc2)c1C(=O)N[C@@H]1C(=O)N2[C@@H]1SC(C)(C)[C@@H]2C(=O)O [Oxacillin] | 268.4 ± 5.0 cm^3
CCn1cc(C(=O)O)c(=O)c2cc3c(cc21)OCO3 [Oxolinic acid] | 176.1 ± 3.0 cm^3
N=C1Sc2ccccc2C2=NCCCN12 [PD 404, 182, PD 404,182] | 150.9 ± 7.0 cm^3
COc1ccc(C[C@H](N)C(=O)N[C@H]2[C@@H](O)[C@H](n3cnc4c(N(C)C)ncnc43)O[C@@H]2CO)cc1 [PUROMYCIN] | 311.7 ± 7.0 cm^3
O=C1C=C2C(=CCOC2O)O1 (centres unmarked) [Patulin] | 101.3 ± 5.0 cm^3
N=C(N)c1ccc(OCCCCCOc2ccc(C(=N)N)cc2)cc1 [Pentamidine] | 281.4 ± 7.0 cm^3
c1ccc2nc3ccccc3nc2c1 [Phenazine] | 144.1 ± 3.0 cm^3
C[C@@H]1O[C@@H]1P(=O)(O)O [Phosphomycin (Fosfomycin), Phosphomycin] | 88.4 ± 5.0 cm^3
CCn1cc(C(=O)O)c(=O)c2cnc(N3CCNCC3)nc21 [Pipemidic acid] | 219.6 ± 3.0 cm^3
COc1cccc2c1C(=O)c1c(O)c3c(c(O)c1C2=O)C[C@@](O)(C(=O)CO)C[C@@H]3O[C@H]1C[C@H](N)[C@H](O[C@@H]2CCCCO2)[C@H](C)O1 [Pirarubicin (THP), Pirarubicin] | 413.3 ± 5.0 cm^3
O=C(C1CCCCC1)N1CC(=O)N2CCc3ccccc3C2C1 (centres unmarked) [Praziquantel] | 254.2 ± 5.0 cm^3
CCCc1cc(C(N)=S)ccn1 [Prothionamide] | 158.5 ± 3.0 cm^3
NC(=O)c1cnccn1 [Pyrazinecarboxamide] | 87.7 ± 7.0 cm^3

Same assay, conditions: Table 2, anticancer drugs; cited from earlier work

SMILES | Molar volume
CCNC(=O)[C@@H]1CCCN1C(=O)[C@H](CCCNC(=N)N)NC(=O)[C@H](CC(C)C)NC(=O)[C@@H](CC(C)C)NC(=O)[C@H](Cc1ccc(O)cc1)NC(=O)[C@H](CO)NC(=O)[C@H](Cc1c[nH]c2ccccc12)NC(=O)[C@H](Cc1c[nH]cn1)NC(=O)[C@@H]1CCC(=O)N1 [Leuprolide Acetate), Leuprolide Acetate] | 834.5 ± 7.0 cm^3
O=NN(CCCl)C(=O)NC1CCCCC1 [Lomustine] | 173.0 ± 7.0 cm^3
O=C(c1cc(Cc2n[nH]c(=O)c3ccccc23)ccc1F)N1CCN(C(=O)C2CC2)CC1 [Lynparza (Olaparib), Olaparib] | 301.7 ± 7.0 cm^3
CNNCc1ccc(C(=O)NC(C)C)cc1 [Matulane (Procarbazine Hydrochloride), Procarbazine Hydrochloride] | 213.6 ± 3.0 cm^3
CC(=O)O[C@]1(C(C)=O)CC[C@H]2[C@@H]3C=C(C)C4=CC(=O)CC[C@]4(C)[C@H]3CC[C@@]21C [Megestrol Acetate] | 333.3 ± 5.0 cm^3
N[C@@H](Cc1ccc(N(CCCl)CCCl)cc1)C(=O)O [Melphalan] | 231.2 ± 3.0 cm^3
S=c1nc[nH]c2nc[nH]c12 [Mercaptopurine] | 94.1 ± 3.0 cm^3
CN(Cc1cnc2nc(N)nc(N)c2n1)c1ccc(C(=O)N[C@@H](CCC(=O)O)C(=O)O)cc1 [Methotrexate] | 295.6 ± 3.0 cm^3
CO[C@@]12[C@H](COC(N)=O)C3=C(C(=O)C(C)=C(N)C3=O)N1C[C@@H]1N[C@@H]12 [Mitomycin C (Mitomycin), Mitomycin C] | 213.6 ± 5.0 cm^3
c1cc(CN2CCCNCCNCCCNCC2)ccc1CN1CCCNCCNCCCNCC1 [Mozobil (Plerixafor), Plerixafor] | 522.2 ± 3.0 cm^3
CCC1=C[C@@H]2CN(C1)Cc1c([nH]c3ccccc13)[C@@](C(=O)OC)(c1cc3c(cc1OC)N(C)[C@H]1[C@@](O)(C(=O)OC)[C@H](OC(C)=O)[C@]4(CC)C=CCN5CC[C@]31[C@@H]54)C2 [Navelbine (Vinorelbine Tartrate), Vinorelbine Tartrate] | 569.7 ± 5.0 cm^3
CNC(=O)c1cc(Oc2ccc(NC(=O)Nc3ccc(Cl)c(C(F)(F)F)c3)cc2)ccn1 [Nexavar (Sorafenib Tosylate), Sorafenib Tosylate] | 319.4 ± 3.0 cm^3
CC1(C)NC(=O)N(c2ccc([N+](=O)[O-])c(C(F)(F)F)c2)C1=O [Nilandron (Nilutamide), Nilutamide] | 216.7 ± 3.0 cm^3
Cc1cn(-c2cc(NC(=O)c3ccc(C)c(Nc4nccc(-c5cccnc5)n4)c3)cc(C(F)(F)F)c2)cn1 [Nilotinib (Tasigna), Nilotinib] | 388.6 ± 7.0 cm^3
Cc1c(C(=O)Nc2ccc(N3C[C@@H](C)O[C@@H](C)C3)nc2)cccc1-c1ccc(OC(F)(F)F)cc1 [Odomzo (Sonidegib), Sonidegib] | 386.7 ± 3.0 cm^3
COC(=O)C[C@](O)(CCCC(C)(C)O)C(=O)O[C@@H]1C(OC)=C[C@]23CCCN2CCc2cc4c(cc2[C@H]13)OCO4 [Omacetaxine Mepesuccinate] | 408.4 ± 5.0 cm^3
C=CC(=O)Nc1cc(Nc2nccc(-c3cn(C)c4ccccc34)n2)c(OC)cc1N(C)CCN(C)C [Osimertinib (Tagrisso), Osimertinib] | 418.4 ± 7.0 cm^3
Nc1cccc2c1C(=O)N(C1CCC(=O)NC1=O)C2=O (centres unmarked) [Pomalidomide] | 173.9 ± 3.0 cm^3

Same assay, conditions: Table 3, antifungal drugs and other molecules; cited from earlier work

SMILES | Molar volume
CC[C@@H]1/C=C/C=C/C[C@H](C)[C@H](O)[C@](C)(O)C(=O)[C@H](C)[C@@H](O)[C@H](C)C(=O)[C@H](C)[C@@H](O)[C@H](C)/C=C/C(=O)O[C@H]2[C@@H](C)[C@@H](CC1)O[C@@]1(CC[C@@H](C)[C@@H](C[C@H](C)O)O1)[C@@H]2C [Oligomycin A] | 688.2 ± 5.0 cm^3
